The record followed here is patent publication US10195255B2, “GLP-1 derivatives and uses thereof” (Novo Nordisk A/S, priority 2013, dated 2019).

Where a SMILES comes first, the peptide text is derived from it. [ ]: non-standard residue; d: D form. The star is where a group is joined. X3 = O=C(O)CCCCCCCCCCCCCCCCCCC(=O)NCC1CCC(C(=O)N[C@@H](CCC(=O)NCCOCCOCC(=O)NCCOCCOCC(=O)NCCCC[C@H](NC(=O)COCCOCCNC(=O)COCCOCCNC(=O)CC[C@H](NC(=O)C2CCC(CNC(=O)CCCCCCCCCCCCCCCCCCC(=O)O)CC2)C(=O)O)C(=O)*)C(=O)O)CC1; X2 = O=C(O)CCCCCCCCCCCCCCCCCCC(=O)N1CCC(C(=O)N[C@@H](CCC(=O)NCCOCCOCC(=O)NCCOCCOCC(=O)NCCCC[C@H](NC(=O)COCCOCCNC(=O)COCCOCCNC(=O)CC[C@H](NC(=O)C2CCN(C(=O)CCCCCCCCCCCCCCCCCCC(=O)O)CC2)C(=O)O)C(=O)*)C(=O)O)CC1; X1 = O=C(O)CCCCCCCCCCCCCCCCCCC(=O)N[C@@H](CCC(=O)NCCOCCOCC(=O)NCCOCCOCC(=O)NCCCC[C@H](NC(=O)COCCOCCNC(=O)COCCOCCNC(=O)CC[C@H](NC(=O)CCCCCCCCCCCCCCCCCCC(=O)O)C(=O)O)C(=O)*)C(=O)O; Aib = CC(C)(N)C(=O)O

Series [1] in a line: Pharmacokinetic study in minipigs (i.v.).
Method: (§1) This is done in a pharmacokinetic (PK) study, where the terminal half-life of the derivative in question is determined. By terminal half-life is meant the time it takes to halve a certain plasma concentration in the terminal elimination phase.
(§2) Male Göttingen minipigs were obtained from Ellegaard Göttingen Minipigs (Dalmose, Denmark) approximately 7-14 months of age and weighing approximately 16-35 kg were used in the studies. The minipigs were housed either individually (pigs with permanent catheters) or in a group and fed restrictedly once or twice daily with SDS minipig diet (Special Diets Services, Essex, UK).
(§3) After at least 2 weeks of acclimatisation two permanent central venous catheters were implanted in vena cava caudalis or cranialis in each animal. The animals were allowed 1 week recovery after the surgery, and were then used for repeated pharmacokinetic studies with a suitable wash-out period between successive GLP-1 derivative dosings.
(§4) Blood samples (for example 0.8 ml) were collected in EDTA buffer (8 mM) and then centrifuged at 4° C. and 1942 G for 10 minutes.
(§5) Plasma was pipetted into Micronic tubes on dry ice, and kept at −20° C. until analysed for plasma concentration of the respective GLP-1 compound using LOCI. Individual plasma concentration-time profiles were analyzed by a non-compartmental pharmacokinetic method in Phoenix v. 6.2 (Pharsight Inc., Mountain View, Calif., USA), or other relevant software for PK analysis, and the resulting terminal half-lives (harmonic mean) determined.
A short description of a further series: in vivo. The settings on record: male, Göttingen, minipig, iv.

As a reminder, the half-life is the time in which the quantity being followed falls by half. A lower half-life goes with fast loss.

Method for in vivo: as §1, §2, §3, §4, §5

Consider `CC[C@H](C)[C@H](NC(=O)[C@H](Cc1ccccc1)NC(=O)[C@H](CCC(=O)O)NC(=O)[C@H](CCCNC(=N)N)NC(=O)[C@H](C)NC(=O)[C@H](C)NC(=O)[C@H](CCC(N)=O)NC(=O)[C@H](CCC(=O)O)NC(=O)[C@H](CCC(=O)O)NC(=O)[C@H](CC(C)C)NC(=O)[C@H](Cc1ccc(O)cc1)NC(=O)[C@H](CO)NC(=O)[C@H](CO)NC(=O)[C@@H](NC(=O)[C@H](CC(=O)O)NC(=O)[C@H](CO)NC(=O)[C@@H](NC(=O)[C@H](Cc1ccccc1)NC(=O)[C@@H](NC(=O)CNC(=O)[C@H](CCC(=O)O)NC(=O)C(C)(C)NC(=O)[C@@H](N)Cc1c[nH]cn1)[C@@H](C)O)[C@@H](C)O)C(C)C)C(=O)N[C@@H](C)C(=O)N[C@@H](Cc1c[nH]c2ccccc12)C(=O)N[C@@H](CC(C)C)C(=O)N[C@H](C(=O)N[C@@H](CCCNC(=N)N)C(=O)NCC(=O)N[C@@H](CCCNC(=N)N)C(=O)NCC(=O)NCC(=O)N[C@@H](CO)C(=O)N[C@@H](CCCCNC(=O)[C@H](CCCCNC(=O)COCCOCCNC(=O)COCCOCCNC(=O)CC[C@H](NC(=O)C1CCC(CNC(=O)CCCCCCCCCCCCCCCCCCC(=O)O)CC1)C(=O)O)NC(=O)COCCOCCNC(=O)COCCOCCNC(=O)CC[C@H](NC(=O)C1CCC(CNC(=O)CCCCCCCCCCCCCCCCCCC(=O)O)CC1)C(=O)O)C(=O)O)C(C)C` (stereo partly drawn) [Example 3, [Aib8,Glu22,Arg26,Arg34]-GLP-1-(7-37)-peptidyl-Gly-Ser-N{Epsilon}[(2S)-2,6-bis[[2-[2-[2-[[2-[2-[2-[[(4S)-4-carboxy-4-[[4-[(19-carboxynonadecanoylamino)methyl]cyclohexanecarbonyl]amino]butanoyl]amino]ethoxy]ethoxy]acetyl]amino]ethoxy]ethoxy]acetyl]amino]hexanoyl]Lys] (H-H[Aib]EGTFTSDVSSYLEEQAAREFIAWLVRGRGGSK(X3)-OH), for which the “Terminal half-live” value in series [1] (minipigs, i.v., 2 nmol/kg, harmonic mean) turned out to be 122 h.

For the molecule `CC[C@H](C)[C@H](NC(=O)[C@H](Cc1ccccc1)NC(=O)[C@H](CCC(=O)O)NC(=O)[C@H](CCCNC(=N)N)NC(=O)[C@H](C)NC(=O)[C@H](C)NC(=O)[C@H](CCC(N)=O)NC(=O)[C@H](CCC(=O)O)NC(=O)[C@H](CCC(=O)O)NC(=O)[C@H](CC(C)C)NC(=O)[C@H](Cc1ccc(O)cc1)NC(=O)[C@H](CO)NC(=O)[C@H](CO)NC(=O)[C@@H](NC(=O)[C@H](CC(=O)O)NC(=O)[C@H](CO)NC(=O)[C@@H](NC(=O)[C@H](Cc1ccccc1)NC(=O)[C@@H](NC(=O)CNC(=O)[C@H](CCC(=O)O)NC(=O)C(C)(C)NC(=O)[C@@H](N)Cc1c[nH]cn1)[C@@H](C)O)[C@@H](C)O)C(C)C)C(=O)N[C@@H](C)C(=O)N[C@@H](Cc1c[nH]c2ccccc12)C(=O)N[C@@H](CC(C)C)C(=O)N[C@H](C(=O)N[C@@H](CCCNC(=N)N)C(=O)NCC(=O)N[C@@H](CCCNC(=N)N)C(=O)N[C@@H](CCCCNC(=O)[C@H](CCCCNC(=O)COCCOCCNC(=O)COCCOCCNC(=O)CC[C@H](NC(=O)CCCCCCCCCCCCCCCCCCC(=O)O)C(=O)O)NC(=O)COCCOCCNC(=O)COCCOCCNC(=O)CC[C@H](NC(=O)CCCCCCCCCCCCCCCCCCC(=O)O)C(=O)O)C(=O)O)C(C)C` [Example 6, N{Epsilon-37}-[(2S)-2,6-bis[[2-[2-[2-[[2-[2-[2-[[(4S)-4-carboxy-4-(19-carboxynonadecanoylamino)butanoyl]amino]ethoxy]ethoxy]acetyl]amino]ethoxy]ethoxy]acetyl]amino]hexanoyl]-[Aib8,Glu22,Arg26,Arg34,Lys37]-GLP-1-(7-37)-peptide], the half-life in “in vivo” is 128 h.

With `CC[C@H](C)[C@H](NC(=O)[C@H](Cc1ccccc1)NC(=O)[C@H](CCC(=O)O)NC(=O)[C@H](CCCNC(=N)N)NC(=O)[C@H](C)NC(=O)[C@H](C)NC(=O)[C@H](CCC(N)=O)NC(=O)[C@H](CCC(=O)O)NC(=O)[C@H](CCC(=O)O)NC(=O)[C@H](CC(C)C)NC(=O)[C@H](Cc1ccc(O)cc1)NC(=O)[C@H](CO)NC(=O)[C@H](CO)NC(=O)[C@@H](NC(=O)[C@H](CC(=O)O)NC(=O)[C@H](CO)NC(=O)[C@@H](NC(=O)[C@H](Cc1ccccc1)NC(=O)[C@@H](NC(=O)CNC(=O)[C@H](CCC(=O)O)NC(=O)C(C)(C)NC(=O)[C@@H](N)Cc1c[nH]cn1)[C@@H](C)O)[C@@H](C)O)C(C)C)C(=O)N[C@@H](C)C(=O)N[C@@H](Cc1c[nH]c2ccccc12)C(=O)N[C@@H](CC(C)C)C(=O)N[C@H](C(=O)N[C@@H](CCCNC(=N)N)C(=O)NCC(=O)N[C@@H](CCCNC(=N)N)C(=O)NCC(=O)N[C@@H](CCCCNC(=O)[C@H](CCCCNC(=O)COCCOCCNC(=O)COCCOCCNC(=O)CC[C@H](NC(=O)CCCCCCCCCCCCCCCCCCC(=O)O)C(=O)O)NC(=O)COCCOCCNC(=O)COCCOCCNC(=O)CC[C@H](NC(=O)CCCCCCCCCCCCCCCCCCC(=O)O)C(=O)O)C(=O)O)C(C)C` [Example 9, N{Alpha}([Aib8,Glu22,Arg26,Arg34]-GLP-1-(7-37)-peptidyl)-N{Epsilon}[(2S)-2,6-bis[[2-[2-[2-[[2-[2-[2-[[(4S)-4-carboxy-4-(19-carboxynonadecanoylamino)butanoyl]amino]ethoxy]ethoxy]acetyl]amino]ethoxy]ethoxy]acetyl]amino]hexanoyl]Lys] (H-H[Aib]EGTFTSDVSSYLEEQAAREFIAWLVRGRGK(X1)-OH; N-terminus and C-terminus assumed), in the series “in vivo”, the half-life was 131 h.

Molecule `CC[C@H](C)[C@H](NC(=O)[C@H](Cc1ccccc1)NC(=O)[C@H](CCC(=O)O)NC(=O)[C@H](CCCNC(=N)N)NC(=O)[C@H](C)NC(=O)[C@H](C)NC(=O)[C@H](CCC(N)=O)NC(=O)[C@H](CCC(=O)O)NC(=O)[C@H](CCC(=O)O)NC(=O)[C@H](CC(C)C)NC(=O)[C@H](Cc1ccc(O)cc1)NC(=O)[C@H](CO)NC(=O)[C@H](CO)NC(=O)[C@@H](NC(=O)[C@H](CC(=O)O)NC(=O)[C@H](CO)NC(=O)[C@@H](NC(=O)[C@H](Cc1ccccc1)NC(=O)[C@@H](NC(=O)CNC(=O)[C@H](CCC(=O)O)NC(=O)C(C)(C)NC(=O)[C@@H](N)Cc1c[nH]cn1)[C@@H](C)O)[C@@H](C)O)C(C)C)C(=O)N[C@@H](C)C(=O)N[C@@H](Cc1c[nH]c2ccccc12)C(=O)N[C@@H](CC(C)C)C(=O)N[C@H](C(=O)N[C@@H](CCCNC(=N)N)C(=O)NCC(=O)N[C@@H](CCCNC(=N)N)C(=O)NCC(=O)N[C@@H](CCCCNC(=O)[C@H](CCCCNC(=O)COCCOCCNC(=O)COCCOCCNC(=O)CC[C@H](NC(=O)C1CCN(C(=O)CCCCCCCCCCCCCCCCCCC(=O)O)CC1)C(=O)O)NC(=O)COCCOCCNC(=O)COCCOCCNC(=O)CC[C@H](NC(=O)C1CCN(C(=O)CCCCCCCCCCCCCCCCCCC(=O)O)CC1)C(=O)O)C(=O)O)C(C)C` [Example 18, N{Alpha}([Aib8,Glu22,Arg26,Arg34]-GLP-1-(7-37)-peptidyl)-N{Epsilon}[(2S)-2,6-bis[[2-[2-[2-[[2-[2-[2-[[(4S)-4-carboxy-4-[[1-(19-carboxynonadecanoyl)piperidine-4-carbonyl]amino]butanoyl]amino]ethoxy]ethoxy]acetyl]amino]ethoxy]ethoxy]acetyl]amino]hexanoyl]Lys] (H-H[Aib]EGTFTSDVSSYLEEQAAREFIAWLVRGRGK(X2)-OH) gave a half-life in series [1] (male, Göttingen, minipig, plasma, iv, 15 nmol/kg) of 140 h.
